Reference: PubChem BioAssay AID588622 (NMMLSC, 2011)
Calls of active or inactive are those of the source. How the calls were made is not given here.

Tests used:
Experiment in all cases: inhibitors of GTP binding, eight-GTPase multiplex, SAR follow-up, biochemical, bead flow cytometry, Mg non-chelator buffer, round 2 (AID 588622)
Conditions in all cases: bead-based flow cytometry multiplex GTP binding; for % response (lower = inhibition): at 100 µM (top of the series)
[1] = target: Cdc42WT
[2] = target: Rab7
[3] = target: RacACT
[4] = target: RacWT
[5] = target: RhoWT

| SMILES | % response (lower = inhibition) [1] | EC50 [2] | % response (lower = inhibition) [3] | % response (lower = inhibition) [4] | % response (lower = inhibition) [5] | EC50 [1] | EC50 [5] | EC50 [3] | EC50 [4] | % response (lower = inhibition) [2] |
| --- | --- | --- | --- | --- | --- | --- | --- | --- | --- | --- |
| Cc1cccc(C(=O)NC(=S)Nc2sc3c(c2C(=O)O)CC(C)(C)OC3)c1 | – | 325 nM | inactive | inactive | – | 1680 nM | 1450 nM | – | – | – |
| O=C(NC(=S)Nc1sc2c(c1C(=O)O)CC1(CCCC1)OC2)c1ccccc1 | – | 33 nM | – | – | – | 50 nM | 101 nM | 80 nM | 56 nM | – |
| CC1(C)Cc2c(sc(NC(=S)NC(=O)c3ccccc3Br)c2C(=O)O)CO1 | – | 1250 nM | – | inactive | – | 1560 nM | 1330 nM | 1180 nM | – | – |
| CC1(C)Cc2c(sc(NC(=S)NC(=O)c3ccccc3F)c2C(=O)O)CO1 | – | 316 nM | – | – | – | 443 nM | 431 nM | 455 nM | 452 nM | – |
| COc1ccccc1C(=O)NC(=S)Nc1sc2c(c1C(=O)O)CC(C)(C)OC2 | inactive | – | inactive | inactive | inactive | – | – | – | – | inactive |
| COc1ccc(C(=O)NC(=S)Nc2sc3c(c2C(=O)O)CC(C)(C)OC3)cc1 | – | 214 nM | – | – | – | 203 nM | 213 nM | 243 nM | 197 nM | – |
| CC1(C)Cc2c(sc(NC(=S)NC(=O)c3cccc(Br)c3)c2C(=O)O)CO1 | inactive | – | inactive | inactive | inactive | – | – | – | – | inactive |
| COc1cccc(C(=O)NC(=S)Nc2sc3c(c2C(=O)O)CC(C)(C)OC3)c1 | – | 323 nM | inactive | inactive | – | 251 nM | 292 nM | – | – | – |
| CC1(C)Cc2c(sc(NC(=S)NC(=O)c3ccc(Br)cc3)c2C(=O)O)CO1 | – | 431 nM | – | – | – | 539 nM | 475 nM | 455 nM | 391 nM | – |

The remaining lines, values ahead:

| % response (lower = inhibition) [1] | EC50 [2] | % response (lower = inhibition) [3] | % response (lower = inhibition) [4] | % response (lower = inhibition) [5] | EC50 [1] | EC50 [5] | EC50 [3] | EC50 [4] | % response (lower = inhibition) [2] | SMILES |
| --- | --- | --- | --- | --- | --- | --- | --- | --- | --- | --- |
| inactive | 4990 nM | inactive | inactive | inactive | – | – | – | – | – | CC1(C)Cc2c(sc(NC(=S)Nc3ccccc3)c2C(=O)O)CO1 |
| – | 97 nM | – | – | – | 109 nM | 131 nM | 139 nM | 147 nM | – | Cc1ccc(C(=O)NC(=S)Nc2sc3c(c2C(=O)O)CC(C)(C)OC3)cc1 |
| – | 77 nM | – | – | – | 171 nM | 112 nM | 133 nM | 147 nM | – | CC1(C)Cc2c(sc(NC(=S)NC(=O)c3ccc(F)cc3)c2C(=O)O)CO1 |
| – | 523 nM | – | – | – | 352 nM | 486 nM | 370 nM | 438 nM | – | Cc1ccccc1C(=O)NC(=S)Nc1sc2c(c1C(=O)O)CC(C)(C)OC2 |
| – | 82 nM | – | – | – | 62 nM | 92 nM | 59 nM | 59 nM | – | CC1(C)Cc2c(sc(NC(=S)NC(=O)c3ccco3)c2C(=O)O)CO1 |
| – | 218 nM | – | – | – | 164 nM | 197 nM | 146 nM | 139 nM | – | CC(C)(C)C1Cc2c(sc(NC(=S)NC(=O)c3ccccc3)c2C(=O)O)CO1 (stereo not given) |
| – | 69 nM | – | – | – | 62 nM | 62 nM | 48 nM | 48 nM | – | CC1(C)CCc2sc(NC(=S)NC(=O)c3ccccc3)c(C(=O)O)c2C1 |
| – | 25 nM | – | – | – | 30 nM | 33 nM | 27 nM | 29 nM | – | CC1(C)Cc2c(sc(NC(=S)NC(=O)c3cccs3)c2C(=O)O)CO1 |
| – | 461 nM | – | – | – | 660 nM | 814 nM | 397 nM | 495 nM | – | CC1(C)Cc2c(sc(NC(=S)NC(=O)C3CCCCC3)c2C(=O)O)CO1 |
| – | 35 nM | – | – | – | 51 nM | 46 nM | 46 nM | 53 nM | – | CCC1(C)Cc2c(sc(NC(=S)NC(=O)c3ccccc3)c2C(=O)O)CO1 (stereo not given) |
| – | 423 nM | inactive | – | – | 689 nM | 599 nM | – | 491 nM | – | CC1(C)Cc2c(sc(NC(=S)NC(=O)c3cccc(F)c3)c2C(=O)O)CO1 |
